In patent US11021493B2, “1,4-thiazine dioxide and 1,2,4-thiadiazine dioxide derivatives as beta-secretase inhibitors and methods of use” (AMGEN INC., priority 2016, dated 2021):
pIC50: −log10 of the molar value.

What was measured:
BACE1 [1] = target: T1, BACE1 (Homo sapiens (Human), UniProt P56817); assay: In vitro enzymatic BACE1 FRET assay; type: biochemical; settings: read-out: BACE1 Enzyme IC50
Target sequence in this assay (P56817 46-501): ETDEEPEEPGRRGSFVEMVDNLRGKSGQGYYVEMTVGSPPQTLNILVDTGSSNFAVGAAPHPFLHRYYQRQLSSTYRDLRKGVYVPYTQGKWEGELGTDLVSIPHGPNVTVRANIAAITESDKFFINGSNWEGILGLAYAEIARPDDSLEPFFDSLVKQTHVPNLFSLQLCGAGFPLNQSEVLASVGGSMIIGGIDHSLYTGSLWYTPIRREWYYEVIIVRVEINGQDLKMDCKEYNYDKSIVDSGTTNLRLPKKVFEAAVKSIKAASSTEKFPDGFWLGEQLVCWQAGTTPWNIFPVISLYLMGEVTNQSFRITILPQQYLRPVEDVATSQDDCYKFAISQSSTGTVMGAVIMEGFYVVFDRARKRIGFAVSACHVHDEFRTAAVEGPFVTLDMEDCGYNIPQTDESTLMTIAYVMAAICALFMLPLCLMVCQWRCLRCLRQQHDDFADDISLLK

Cathepsin D (CatD) = Cathepsin D (CatD) (Homo sapiens (Human), UniProt P07339); assay: In vitro enzymatic Cathepsin D (CatD) FRET assay; type: biochemical; settings: read-out: Cat D Enzyme IC50
Sequence of Cathepsin D (CatD) (P07339 65-412, species assumed): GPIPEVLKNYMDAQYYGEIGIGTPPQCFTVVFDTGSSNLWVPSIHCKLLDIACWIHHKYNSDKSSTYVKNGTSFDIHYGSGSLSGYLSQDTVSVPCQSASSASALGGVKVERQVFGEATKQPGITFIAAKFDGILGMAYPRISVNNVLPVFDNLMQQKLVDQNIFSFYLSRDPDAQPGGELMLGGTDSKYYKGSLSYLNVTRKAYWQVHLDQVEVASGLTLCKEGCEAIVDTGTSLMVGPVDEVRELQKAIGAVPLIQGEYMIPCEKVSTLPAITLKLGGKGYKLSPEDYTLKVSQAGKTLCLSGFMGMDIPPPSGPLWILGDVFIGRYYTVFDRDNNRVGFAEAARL

BACE1 [2] = target: T1, BACE1; assay: In vitro BACE1 cell-based assay (Aβ40 in conditioned medium of cells stably expressing APP, HTRF); settings: Aβ40 in conditioned media after 24 h incubation
Target sequence in this assay (P56817 46-501, species assumed): as the sequence (P56817 46-501) above

human recombinant BACE2 = human recombinant BACE2 (Homo sapiens (Human), UniProt Q9Y5Z0); assay: In vitro enzymatic BACE2 FRET assay; type: biochemical; settings: read-out: BACE2 Enzyme IC50
Sequence of human recombinant BACE2 (Q9Y5Z0 63-518): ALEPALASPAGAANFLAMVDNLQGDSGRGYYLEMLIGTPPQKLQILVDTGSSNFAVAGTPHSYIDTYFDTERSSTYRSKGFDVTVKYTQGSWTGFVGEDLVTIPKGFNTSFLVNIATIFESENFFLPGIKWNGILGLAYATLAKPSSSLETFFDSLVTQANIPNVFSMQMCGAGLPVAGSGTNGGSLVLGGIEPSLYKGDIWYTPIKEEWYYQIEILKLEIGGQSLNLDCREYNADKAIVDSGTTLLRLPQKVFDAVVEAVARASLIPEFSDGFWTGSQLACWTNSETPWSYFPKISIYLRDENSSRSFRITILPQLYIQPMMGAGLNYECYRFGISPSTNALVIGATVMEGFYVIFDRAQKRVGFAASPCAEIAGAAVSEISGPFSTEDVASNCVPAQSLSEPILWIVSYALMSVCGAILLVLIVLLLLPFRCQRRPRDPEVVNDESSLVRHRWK

SMILES | pIC50 (BACE1 [1]) | pIC50 (Cathepsin D (CatD)) | pIC50 (BACE1 [2]) | pIC50 (human recombinant BACE2)
CN1C(N)=N[C@](C)(c2cc(/C=C(\F)c3cnc(OCC(F)(F)F)cn3)ccc2F)C2(CC2)S1(=O)=O [Example 163, (8R)-8-(2-fluoro-5-((Z)-2-fluoro-2-(5-(2,2,2-trifluoroethoxy)-2-pyrazinyl)ethenyl)phenyl)-5,8-dimethyl-4-thia-5,7-diazaspiro[2.5]oct-6-en-6-amine 4,4-dioxide] | 6.88 | 3.65 | 5.95 | 5.54
COC[C@H](C)Oc1cnc(/C(F)=C/c2ccc(F)c([C@]3(C)CS(=O)(=O)N(C)C(N)=N3)c2)cn1 [Example 164, (R)-3-amino-5-(2-fluoro-5-((Z)-2-fluoro-2-(5-(((S)-1-methoxypropan-2-yl)oxy)pyrazin-2-yl)vinyl)phenyl)-2,5-dimethyl-5,6-dihydro-2H-1,2,4-thiadiazine 1,1-dioxide] | 7.96 | 3.97 | 7.96 | 6.97
Cc1cnc(COc2cnc(/C(F)=C/c3ccc(F)c([C@@]4(C)N=C(N)N(C)S(=O)(=O)C45CC5)c3)cn2)o1 [Example 169, (8R)-8-(2-fluoro-5-((Z)-2-fluoro-2-(5-((5-methyl-1,3-oxazol-2-yl)methoxy)-2-pyrazinyl)ethenyl)phenyl)-5,8-dimethyl-4-thia-5,7-diazaspiro[2.5]oct-6-en-6-amine 4,4-dioxide] | 7.18 | 3.16 | 6.91 | 6.04
CC1(C)C(N)=N[C@](C)(c2cc(/C=C(\F)c3cnc(C#N)cn3)ccc2F)CS1(=O)=O [Example 170, (R,Z)-5-(2-(3-(5-amino-3,6,6-trimethyl-1,1-dioxido-3,6-dihydro-2H-1,4-thiazin-3-yl)-4-fluorophenyl)-1-fluorovinyl)pyrazine-2-carbonitrile] | 8.70 | 3.19 | 8.30 | 7.77
C#C[C@H](C)Oc1cnc(/C(F)=C/c2ccc(F)c([C@]3(C)CS(=O)(=O)N(C)C(N)=N3)c2)cn1 [Example 171, (R)-3-amino-5-(5-((Z)-2-(5-((S)-but-3-yn-2-yloxy)pyrazin-2-yl)-2-fluorovinyl)-2-fluorophenyl)-2,5-dimethyl-5,6-dihydro-2H-1,2,4-thiadiazine 1,1-dioxide] | 8.30 | 4.77 | 8.22 | 6.85
COC(C)COc1cnc(/C(F)=C/c2ccc(F)c([C@]3(C)CS(=O)(=O)N(C)C(N)=N3)c2)cn1 (stereo partly drawn) [Example 172, (R)-3-amino-5-(2-fluoro-5-((Z)-2-fluoro-2-(5-(2-methoxypropoxy)pyrazin-2-yl)vinyl)phenyl)-2,5-dimethyl-5,6-dihydro-2H-1,2,4-thiadiazine 1,1-dioxide] | 7.60 | 4.17 | 7.64 | 7.08
Cc1nnc(COc2cnc(/C(F)=C/c3ccc(F)c([C@]4(C)CS(=O)(=O)N(C)C(N)=N4)c3)cn2)o1 [Example 173, (R,Z)-3-amino-5-(2-fluoro-5-(2-fluoro-2-(5-((5-methyl-1,3,4-oxadiazol-2-yl)methoxy)pyrazin-2-yl)vinyl)phenyl)-2,5-dimethyl-5,6-dihydro-2H-1,2,4-thiadiazine 1,1-dioxide] | 8.15 | 4.11 | 8.05 | 6.99
Cc1noc(COc2cnc(/C(F)=C/c3ccc(F)c([C@]4(C)CS(=O)(=O)C(C)(C)C(N)=N4)c3)cn2)n1 [Example 175, (R,Z)-5-amino-3-(2-fluoro-5-(2-fluoro-2-(5-((3-methyl-1,2,4-oxadiazol-5-yl)methoxy)pyrazin-2-yl)vinyl)phenyl)-3,6,6-trimethyl-3,6-dihydro-2H-1,4-thiazine 1,1-dioxide] | 7.06 | 3.91 | 7.28 | 6.65
Cc1nnc(COc2cnc(/C(F)=C/c3ccc(F)c([C@]4(C)CS(=O)(=O)C(C)(C)C(N)=N4)c3)cn2)o1 [Example 176, (R,Z)-5-amino-3-(2-fluoro-5-(2-fluoro-2-(5-((5-methyl-1,3,4-oxadiazol-2-yl)methoxy)pyrazin-2-yl)vinyl)phenyl)-3,6,6-trimethyl-3,6-dihydro-2H-1,4-thiazine 1,1-dioxide] | 6.95 | 3.83 | 7.25 | 6.39
CN1C(N)=N[C@](C)(c2cc(/C=C(\F)c3cnc(OCC4COC4)cn3)ccc2F)CS1(=O)=O [Example 179, (R,Z)-3-amino-5-(2-fluoro-5-(2-fluoro-2-(5-(oxetan-3-ylmethoxy)pyrazin-2-yl)vinyl)phenyl)-2,5-dimethyl-5,6-dihydro-2H-1,2,4-thiadiazine 1,1-dioxide] | 6.75 | 4.37 | 6.92 | 6.66
CN1C(N)=N[C@](C)(c2cc(/C=C(\F)c3ccc(C#N)cn3)ccc2F)C(C)(C)S1(=O)=O [Example 180, (R,Z)-6-(2-(3-(3-amino-2,5,6,6-tetramethyl-1,1-dioxido-5,6-dihydro-2H-1,2,4-thiadiazin-5-yl)-4-fluorophenyl)-1-fluorovinyl)nicotinonitrile] | 8.15 | 4.03 | 7.59 | 7.12
CN1C(N)=N[C@](C)(c2cc(/C=C(\F)c3cnc(Cl)cn3)ccc2F)C(C)(C)S1(=O)=O [Example 182, (R,Z)-3-amino-5-(5-(2-(5-chloropyrazin-2-yl)-2-fluorovinyl)-2-fluorophenyl)-2,5,6,6-tetramethyl-5,6-dihydro-2H-1,2,4-thiadiazine 1,1-dioxide] | 7.41 | 3.66 | 6.50 | 7.12
CC1(C)C(N)=N[C@](C)(c2cc(/C=C(\F)c3cc4c(cn3)OCCO4)ccc2F)CS1(=O)=O [Example 184, (R,Z)-5-amino-3-(5-(2-(2,3-dihydro-[1,4]dioxino[2,3-c]pyridin-7-yl)-2-fluorovinyl)-2-fluorophenyl)-3,6,6-trimethyl-3,6-dihydro-2H-1,4-thiazine 1,1-dioxide] | 6.53 | 3.47 | 6.56 | 6.10
CC#CCOc1cnc(/C(F)=C/c2ccc(F)c([C@@]3(C)N=C(N)N(C)S(=O)(=O)C3(C)C)c2)cn1 [Example 185, (R,Z)-3-amino-5-(5-(2-(5-(but-2-yn-1-yloxy)pyrazin-2-yl)-2-fluorovinyl)-2-fluorophenyl)-2,5,6,6-tetramethyl-5,6-dihydro-2H-1,2,4-thiadiazine 1,1-dioxide] | 8.70 | 3.59 | 8.30 | 6.80
CN1C(N)=N[C@](C)(c2cc(/C=C(\F)c3cc4c(cn3)OCCO4)ccc2F)CS1(=O)=O [Example 187, (R,Z)-3-amino-5-(5-(2-(2,3-dihydro-[1,4]dioxino[2,3-c]pyridin-7-yl)-2-fluorovinyl)-2-fluorophenyl)-2,5-dimethyl-5,6-dihydro-2H-1,2,4-thiadiazine 1,1-dioxide] | 6.76 | 3.78 | 6.97 | 7.11
CC1(C)C(N)=N[C@](CF)(c2cc(/C=C(\F)c3ccc(C#N)cn3)ccc2F)CS1(=O)=O [Example 188, (S,Z)-6-(2-(3-(5-amino-3-(fluoromethyl)-6,6-dimethyl-1,1-dioxido-3,6-dihydro-2H-1,4-thiazin-3-yl)-4-fluorophenyl)-1-fluorovinyl)nicotinonitrile] | 7.89 | 3.81 | 6.65 | 7.24
